# Test system: DSS-induced enteritis mice
# Test: DSS-induced inflammatory bowel disease
# Format: in vivo, C57BL/6J mice
# Experimental: Eight-week-old C57BL/6J male mice were randomly divided into […], of which, G1 blank control group (8 mice), G2 positive control group (intraperitoneal injection of infliximab 10 mg/kg, 8 mice), G3 group (intraperitoneal injection of small-molecule drug TJ01-013, 5 mg/kg, 12 mice), G4 group (intraperitoneal injection of small-molecule drug TJ01-013, 10 mg/kg, 12 mice) and G5 group (intraperitoneal injection of small-molecule drug TJ01-013, 10 mg/kg, 12 mice). The configuration method of intraperitoneal injection drug was 5% DMSO+30% PEG400+65% ddH2O, the small-molecule compound was first dissolved in 5% DMSO, and then 30% PEG400 and 65% H2O were added sequentially, after 2 weeks of acclimatization, 2% DSS solution was given as drinking water for 6 days, and then was replaced with normal drinking water. During the experiment, the mice were injected intraperitoneally with the corresponding concentration of small-molecule compound every day; and the mice were recorded daily for weight change, fecal shape and blood in stool. During the experiment, the fecal shape and blood in stool were scored, and the disease activity index was calculated on day 3th, day 6th, and day 8th.
# At the end of the experiment, after the mice were put to death with CO2, all the intestinal segments from the cecum to the anus were cut, photographed and measured for length.
# The middle about 1 cm intestinal segment was taken into the embedding box and immersed in 4% paraformaldehyde, fixed and immersed for 72 h to prepare pathological specimens for HE staining, and the histopathological results were scored; tissue embedding, sectioning and HE staining were performed as follows:
# The remaining intestinal segments were washed with pre-cooled saline using a 50 mL syringe, and after washing out the remaining liquid in the intestinal lumen, the tissues were cut into pieces with small scissors and mixed evenly, wrapped in tin foil and then rapidly frozen in liquid nitrogen, and all the operations were controlled to be completed within 10 minutes after the death of the mice. The tissues were lysed by Trizol, and RNA was extracted according to the instructions of Trizol; the obtained RNA was subjected to reverse transcription reaction with the Reverse Transcription Kit from ABI company; SYBR Green method was used to detect the inflammatory factors such as Cxcl1, G-CSF, IL6, IL-1β, S100A8, and TNF-α in the reversed transcription products, and the housekeeping gene Actin was used as an internal reference, and calculated and analyzed by 2-ΔΔCt method.
# [1] = vs model control group, FIG. 23
# [2] = vs model control group, FIG. 24
structure (smiles),measurement,setting,value
O=C(O)C[S+]([O-])c1cc(NS(=O)(=O)c2ccc(Br)cc2)c2ccccc2c1O (stereo not drawn) [I-1],Histopathological scores,FIG. 23,significantly reduced the pathological changes
same,weight loss of the mice,"intraperitoneal injection during DSS induction, FIG. 20",slowing down of the weight loss
same,disease activity index,"intraperitoneal injection during DSS induction, FIG. 21",reduction of the disease activity index
same,colorectal length,"vs model control group, FIG. 22",significantly greater
same,colorectal tissue morphology (HE staining),[1],more intact
same,inflammatory infiltration of colorectal tissue,[1],reduced
same,Cxcl1 expression level in colorectal tissue (q-PCR),[2],significantly reduced
same,G-CSF expression level in colorectal tissue (q-PCR),[2],significantly reduced
same,IL6 expression level in colorectal tissue (q-PCR),[2],significantly reduced
same,IL-1β expression level in colorectal tissue (q-PCR),[2],significantly reduced
same,S100A8 expression level in colorectal tissue (q-PCR),[2],significantly reduced
same,TNF-α expression level in colorectal tissue (q-PCR),[2],significantly reduced
